Results as given in the NIST ThermoML archive (doi:10.1021/je400274f).
± gives the expanded uncertainty stated by the source.

Conditions: 343.15 K; 101.33 kPa; Liquid; Vibrating tube method

| SMILES | mass density [kg/m3] |
| --- | --- |
| CCCCCCCCC(C)CC (stereo unspecified) [3-methylundecane] | 714.4 ± 0.6 |
| CCCCC(C)CCC (stereo unspecified) [4-methyloctane] | 679.3 ± 0.4 |
| CCCCCCCCCC(C)CCCCCC (stereo unspecified) [7-methylhexadecane] | 746.2 ± 0.6 |

Same assay, conditions: 353.15 K; 101.33 kPa; Liquid; Concentric cylinders viscometry

| SMILES | viscosity [mPa·s] |
| --- | --- |
| CCCCCCCCC(C)C [2-methyldecane] | 0.514 ± 0.015 |
| CCCCCCCC(C)C [2-methylnonane] | 0.428 ± 0.01 |
| CCCCCCC(C)C [2-methyloctane] | 0.345 ± 0.008 |
| CCCCCCCCCCCCCC(C)C [2-methylpentadecane] | 1.14 ± 0.07 |
| CCC(C)CC(C)CC (stereo unspecified) [3,5-dimethylheptane] | 0.35 ± 0.01 |
| CCC(C)CCC(C)CC (stereo unspecified) [3,6-dimethyloctane] | 0.409 ± 0.01 |
| CCCCCCCCC(C)CC (stereo unspecified) [3-methylundecane] | 0.605 ± 0.014 |
| CCCCC(C)CCC (stereo unspecified) [4-methyloctane] | 0.329 ± 0.04 |
| CCCCCCCCCC(C)CCCCCC (stereo unspecified) [7-methylhexadecane] | 1.21 ± 0.08 |

Same assay, conditions: 353.15 K; 101.33 kPa; Liquid; Vibrating tube method

| SMILES | mass density [kg/m3] |
| --- | --- |
| CCCCCCCCC(C)C [2-methyldecane] | 692.8 ± 0.4 |
| CCCCCCCC(C)C [2-methylnonane] | 680.2 ± 0.4 |
| CCCCCCC(C)C [2-methyloctane] | 666.7 ± 0.4 |
| CCCCCCCCCCCCCC(C)C [2-methylpentadecane] | 733 ± 4.4 |
| CCC(C)CC(C)CC (stereo unspecified) [3,5-dimethylheptane] | 678 ± 0.5 |
| CCC(C)CCC(C)CC (stereo unspecified) [3,6-dimethyloctane] | 691.5 ± 0.4 |
| CCCCCCCCC(C)CC (stereo unspecified) [3-methylundecane] | 707 ± 0.6 |
| CCCCC(C)CCC (stereo unspecified) [4-methyloctane] | 671 ± 0.4 |
| CCCCCCCCCC(C)CCCCCC (stereo unspecified) [7-methylhexadecane] | 739.3 ± 0.6 |

Same assay, conditions: 363.15 K; 101.33 kPa; Liquid; Concentric cylinders viscometry

| SMILES | viscosity [mPa·s] |
| --- | --- |
| CCCCCCCCC(C)C [2-methyldecane] | 0.464 ± 0.013 |
| CCCCCCCC(C)C [2-methylnonane] | 0.388 ± 0.009 |
| CCCCCCC(C)C [2-methyloctane] | 0.315 ± 0.008 |
| CCCCCCCCCCCCCC(C)C [2-methylpentadecane] | 1 ± 0.05 |
| CCC(C)CC(C)CC (stereo unspecified) [3,5-dimethylheptane] | 0.319 ± 0.008 |
| CCC(C)CCC(C)CC (stereo unspecified) [3,6-dimethyloctane] | 0.372 ± 0.01 |
| CCCCCCCCC(C)CC (stereo unspecified) [3-methylundecane] | 0.543 ± 0.012 |
| CCCCC(C)CCC (stereo unspecified) [4-methyloctane] | 0.294 ± 0.04 |
| CCCCCCCCCC(C)CCCCCC (stereo unspecified) [7-methylhexadecane] | 1.05 ± 0.08 |

Same assay, conditions: 363.15 K; 101.33 kPa; Liquid; Vibrating tube method

| SMILES | mass density [kg/m3] |
| --- | --- |
| CCCCCCCCC(C)C [2-methyldecane] | 684.9 ± 0.4 |
| CCCCCCCC(C)C [2-methylnonane] | 672.1 ± 0.4 |
| CCCCCCC(C)C [2-methyloctane] | 658.2 ± 0.4 |
| CCCCCCCCCCCCCC(C)C [2-methylpentadecane] | 726 ± 4.3 |
| CCC(C)CC(C)CC (stereo unspecified) [3,5-dimethylheptane] | 669.7 ± 0.5 |
| CCC(C)CCC(C)CC (stereo unspecified) [3,6-dimethyloctane] | 683.3 ± 0.4 |
| CCCCCCCCC(C)CC (stereo unspecified) [3-methylundecane] | 699.4 ± 0.6 |
| CCCCC(C)CCC (stereo unspecified) [4-methyloctane] | 662.5 ± 0.4 |
| CCCCCCCCCC(C)CCCCCC (stereo unspecified) [7-methylhexadecane] | 732.4 ± 0.6 |

Same assay, conditions: 373.15 K; 101.33 kPa; Liquid; Concentric cylinders viscometry

| SMILES | viscosity [mPa·s] |
| --- | --- |
| CCCCCCCCC(C)C [2-methyldecane] | 0.422 ± 0.011 |
| CCCCCCCC(C)C [2-methylnonane] | 0.355 ± 0.009 |
| CCCCCCC(C)C [2-methyloctane] | 0.288 ± 0.008 |
| CCCCCCCCCCCCCC(C)C [2-methylpentadecane] | 0.88 ± 0.03 |
| CCC(C)CCC(C)CC (stereo unspecified) [3,6-dimethyloctane] | 0.328 ± 0.008 |
| CCCCCCCCC(C)CC (stereo unspecified) [3-methylundecane] | 0.492 ± 0.012 |
| CCCCC(C)CCC (stereo unspecified) [4-methyloctane] | 0.261 ± 0.04 |
| CCCCCCCCCC(C)CCCCCC (stereo unspecified) [7-methylhexadecane] | 0.91 ± 0.05 |

Same assay, conditions: 373.15 K; 101.33 kPa; Liquid; Vibrating tube method

| SMILES | mass density [kg/m3] |
| --- | --- |
| CCCCCCCCC(C)C [2-methyldecane] | 677 ± 0.4 |
| CCCCCCCC(C)C [2-methylnonane] | 664 ± 0.4 |
| CCCCCCC(C)C [2-methyloctane] | 649.7 ± 0.5 |
| CCCCCCCCCCCCCC(C)C [2-methylpentadecane] | 718.9 ± 4.2 |
| CCC(C)CC(C)CC (stereo unspecified) [3,5-dimethylheptane] | 661.2 ± 0.5 |
| CCC(C)CCC(C)CC (stereo unspecified) [3,6-dimethyloctane] | 674.9 ± 0.5 |
| CCCCCCCCC(C)CC (stereo unspecified) [3-methylundecane] | 691.9 ± 0.6 |
| CCCCC(C)CCC (stereo unspecified) [4-methyloctane] | 653.9 ± 0.4 |
| CCCCCCCCCC(C)CCCCCC (stereo unspecified) [7-methylhexadecane] | 725.4 ± 0.6 |
